Data: US12077503B2, “Substituted cyclic amides and their use as herbicides” (FMC CORPORATION, priority 2015, dated 2024)

Columns and labels:
Type in all cases: in vivo
[1] = test system: Kochia (Kochia scoparia); assay: Test A preemergence; details: Bassia scoparia, pre-emergence, 240 h, preemergence, read-out: Plant response rating, Kochia; for pest or weed control at 125 g/ha: 125 g ai/ha, visual rating after approx. 10 d, 0 to 100 scale where 0 is no effect and 100 is complete control; for pest or weed control at 500 g/ha: 500 g ai/ha, 0 to 100 scale, 0 = no effect, 100 = complete control
In short: (§1)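 Ratings of 0 (no effect) to 100 (complete control) come from visual comparison with untreated controls roughly 10 d after treatment. Test chemicals, formulated in a non-phytotoxic solvent mixture with surfactant, were applied either as a preemergence directed soil spray on seeded soil or postemergence to one- to two-leaf plants 2 to 10 cm tall.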

[2] = test system: barnyardgrass (Echinochloa crus-galli); assay: Test A preemergence; details: Echinochloa crus-galli, pre-emergence, 240 h, preemergence, read-out: Plant response rating, Barnyardgrass; for pest or weed control at 125 g/ha: 125 g ai/ha, visual rating after approx. 10 d, 0 to 100 scale where 0 is no effect and 100 is complete control; for pest or weed control at 500 g/ha: 500 g ai/ha, 0 to 100 scale, 0 = no effect, 100 = complete control
In short: as §1

[3] = test system: pigweed (Amaranthus retroflexus); assay: Test A preemergence; details: Amaranthus retroflexus, pre-emergence, 240 h, preemergence, read-out: Plant response rating, Pigweed; for pest or weed control at 125 g/ha: 125 g ai/ha, visual rating after approx. 10 d, 0 to 100 scale where 0 is no effect and 100 is complete control; for pest or weed control at 500 g/ha: 500 g ai/ha, 0 to 100 scale, 0 = no effect, 100 = complete control
[4] = test system: ragweed (common ragweed, Ambrosia elatior); assay: Test A preemergence; details: Ambrosia artemisiifolia, pre-emergence, 240 h, preemergence, read-out: Plant response rating, Ragweed; for pest or weed control at 125 g/ha: 125 g ai/ha, visual rating after approx. 10 d, 0 to 100 scale where 0 is no effect and 100 is complete control; for pest or weed control at 500 g/ha: 500 g ai/ha, 0 to 100 scale, 0 = no effect, 100 = complete control
In short: as §1

[5] = test system: ryegrass, Italian (Italian ryegrass, Lolium multiflorum); assay: Test A preemergence; details: Lolium multiflorum, pre-emergence, 240 h, preemergence, read-out: Plant response rating, Ryegrass, Italian; for pest or weed control at 125 g/ha: 125 g ai/ha, visual rating after approx. 10 d, 0 to 100 scale where 0 is no effect and 100 is complete control; for pest or weed control at 500 g/ha: 500 g ai/ha, 0 to 100 scale, 0 = no effect, 100 = complete control
In short: as §1

[6] = test system: Galium (catchweed bedstraw, Galium aparine); assay: Test A postemergence; details: Galium, post-emergence, 240 h, 125 g ai/ha, postemergence; visual injury after approximately 10 d; 0 to 100 scale (0 no effect, 100 complete control); read-out: Plant response rating, Galium
In short: as §1

[7] = test system: Kochia (Kochia scoparia); assay: Test A postemergence; details: Bassia scoparia, post-emergence, 240 h, 125 g ai/ha, postemergence; visual injury after approximately 10 d; 0 to 100 scale (0 no effect, 100 complete control); read-out: Plant response rating, Kochia
In short: as §1

[8] = test system: barnyardgrass (Echinochloa crus-galli); assay: Test A postemergence; details: Echinochloa crus-galli, post-emergence, 240 h, 125 g ai/ha, postemergence; visual injury after approximately 10 d; 0 to 100 scale (0 no effect, 100 complete control); read-out: Plant response rating, Barnyardgrass
In short: as §1

[9] = test system: blackgrass (Alopecurus myosuroides); assay: Test A postemergence; details: Alopecurus myosuroides, post-emergence, 240 h, 125 g ai/ha, postemergence; visual injury after approximately 10 d; 0 to 100 scale (0 no effect, 100 complete control); read-out: Plant response rating, Blackgrass
In short: as §1

[10] = test system: corn (Zea mays); assay: Test A postemergence; details: Zea mays, post-emergence, 240 h, 125 g ai/ha, postemergence; visual injury after approximately 10 d; 0 to 100 scale (0 no effect, 100 complete control)
In short: as §1

[11] = test system: giant foxtail (Setaria faberii); assay: Test A postemergence; details: Setaria faberi, post-emergence, 240 h, 125 g ai/ha, postemergence; visual injury after approximately 10 d; 0 to 100 scale (0 no effect, 100 complete control); read-out: Plant response rating, Foxtail, Giant
In short: as §1

[12] = test system: pigweed (Amaranthus retroflexus); assay: Test A postemergence; details: Amaranthus retroflexus, post-emergence, 240 h, 125 g ai/ha, postemergence; visual injury after approximately 10 d; 0 to 100 scale (0 no effect, 100 complete control); read-out: Plant response rating, Pigweed
In short: as §1

[13] = test system: ragweed (common ragweed, Ambrosia elatior); assay: Test A postemergence; details: Ambrosia artemisiifolia, post-emergence, 240 h, 125 g ai/ha, postemergence; visual injury after approximately 10 d; 0 to 100 scale (0 no effect, 100 complete control); read-out: Plant response rating, Ragweed
In short: as §1

[14] = test system: ryegrass, Italian (Italian ryegrass, Lolium multiflorum); assay: Test A postemergence; details: Lolium multiflorum, post-emergence, 240 h, 125 g ai/ha, postemergence; visual injury after approximately 10 d; 0 to 100 scale (0 no effect, 100 complete control); read-out: Plant response rating, Ryegrass, Italian
In short: as §1

[15] = test system: wheat (Triticum aestivum); assay: Test A postemergence; details: Triticum aestivum, post-emergence, 240 h, 125 g ai/ha, postemergence; visual injury after approximately 10 d; 0 to 100 scale (0 no effect, 100 complete control); read-out: Plant response rating, Wheat
In short: as §1

| Structure (SMILES) | pest or weed control at 125 g/ha [1] [%] | pest or weed control at 500 g/ha [1] [%] | pest or weed control at 125 g/ha [2] [%] | pest or weed control at 500 g/ha [2] [%] | pest or weed control at 125 g/ha [3] [%] | pest or weed control at 500 g/ha [3] [%] | pest or weed control at 125 g/ha [4] [%] | pest or weed control at 500 g/ha [4] [%] | pest or weed control at 125 g/ha [5] [%] | pest or weed control at 500 g/ha [5] [%] | pest or weed control at 125 g/ha [6] [%] | pest or weed control at 125 g/ha [7] [%] | pest or weed control at 125 g/ha [8] [%] | pest or weed control at 125 g/ha [9] [%] | Corn plant response rating (crop injury, 0 = no effect, 100 = complete kill) at 125 g/ha [10] [%] | pest or weed control at 125 g/ha [11] [%] | pest or weed control at 125 g/ha [12] [%] | pest or weed control at 125 g/ha [13] [%] | pest or weed control at 125 g/ha [14] [%] | plant injury at 125 g/ha [15] [%] |
| --- | --- | --- | --- | --- | --- | --- | --- | --- | --- | --- | --- | --- | --- | --- | --- | --- | --- | --- | --- | --- |
| Cc1ccc([C@H]2CNC(=O)[C@@H]2C(=O)Nc2cccc(F)c2F)s1 [Compound 729] | 0 | 0 | 0 | 0 | 0 | 0 | 0 | 0 | 0 | 0 | 0 | 0 | 0 | 0 | 0 | 0 | 0 | 0 | 0 | 0 |
| CSc1ccccc1NC(=O)[C@H]1C(=O)N(C)C[C@@H]1c1ccc(C)c(C)c1 [Compound 733] | 20 | 80 | 90 | 100 | 20 | 60 | 70 | 80 | 40 | 60 | 20 | 0 | 90 | 0 | 0 | 80 | 0 | 0 | 20 | 20 |
| CSc1ccccc1NC(=O)[C@H]1C(=O)N(C)C[C@@H]1c1cc(F)cc(F)c1 [Compound 738] | 0 | 70 | 90 | 100 | 0 | 50 | 0 | 70 | 0 | 20 | 50 | 20 | 80 | 0 | 20 | 70 | 20 | 0 | 0 | 0 |
